pIC50: −log10 of the molar value. Where two headings read alike, the source gives them in different places.
How the values were obtained:
MMP-9 = target: T1, MMP-9 (Homo sapiens, UniProt P14780); assay: In vitro MMP inhibition, IC50 determination (fluorogenic substrate I); format: biochemical; conditions: read-out: MMP-9 (IC-50)
T1 construct: made in house; host or cells: MMP-9-transfected HT1080 cells (spent media)

MMP-13 = target: T2, MMP-13 (Homo sapiens, UniProt P45452); assay: as above; format: biochemical; conditions: read-out: MMP-13 (IC-50)
T2 construct: made in house; host or cells: baculovirus / insect cells

T1 sequence (P14780 107-707 limits assumed): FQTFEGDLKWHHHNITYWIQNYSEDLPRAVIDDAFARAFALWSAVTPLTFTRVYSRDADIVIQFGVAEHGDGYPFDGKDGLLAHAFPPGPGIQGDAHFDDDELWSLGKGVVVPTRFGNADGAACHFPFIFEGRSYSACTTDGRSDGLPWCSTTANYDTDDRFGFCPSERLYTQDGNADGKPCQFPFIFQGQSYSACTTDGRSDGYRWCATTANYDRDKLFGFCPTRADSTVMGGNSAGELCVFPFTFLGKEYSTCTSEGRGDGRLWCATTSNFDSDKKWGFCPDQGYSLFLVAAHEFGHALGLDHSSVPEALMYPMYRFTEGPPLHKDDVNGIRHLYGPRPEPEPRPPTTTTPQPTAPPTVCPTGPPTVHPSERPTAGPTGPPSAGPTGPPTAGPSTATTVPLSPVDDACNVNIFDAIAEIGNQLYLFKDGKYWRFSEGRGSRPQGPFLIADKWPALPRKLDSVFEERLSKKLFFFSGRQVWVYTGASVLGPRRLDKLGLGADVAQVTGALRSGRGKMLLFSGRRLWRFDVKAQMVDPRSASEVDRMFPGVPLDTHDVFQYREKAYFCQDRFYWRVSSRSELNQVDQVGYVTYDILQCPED

SMILES	pIC50 (MMP-9; value in parenthesis)	pIC50 (MMP-13; value in parenthesis)	pIC50 (MMP-9; value in parentheses)	pIC50 (MMP-13; value in parentheses)
CCOCCCc1ccc(N2CCN(S(=O)(=O)C3(C(=O)NO)CCN(CCOC)CC3)CC2)cc1 [Example 179]	8.47	9.28		
COCCCc1ccc(N2CCN(S(=O)(=O)C3(C(=O)NO)CCN(CCOC)CC3)CC2)cc1 [Example 180]	8.65	8.92		
COCCN1CCC(C(=O)NO)(S(=O)(=O)N2CCN(c3ccc(CC4CCCCC4)cc3)CC2)CC1 [Example 181]	7.34	7.74		
COCCN1CCC(C(=O)NO)(S(=O)(=O)N2CCN(c3ccc(CCC4CCCC4)cc3)CC2)CC1 [Example 182]	8.76	9.85		
COCCN1CCC(C(=O)NO)(S(=O)(=O)N2CCN(c3ccc(CC4CCC4)cc3)CC2)CC1 [Example 183]	8.78	8.56		
CCOc1ccc(N2CCN(S(=O)(=O)C3(C(=O)NO)CCN(CCOC)CC3)CC2)cc1F [Example 184]	8.55	8.65		
CCCOc1ccc(N2CCN(S(=O)(=O)C3(C(=O)NO)CCN(CCOC)CC3)CC2)cc1F [Example 185]	8.92	8.79		
COCCN1CCC(C(=O)NO)(S(=O)(=O)N2CCN(c3ccc(C#N)cc3)CC2)CC1 [Example 186]	7.25	8.58		
CCc1cnc(N2CCN(S(=O)(=O)C3(C(=O)NO)CCN(CCOC)CC3)CC2)nc1 [Example 187]	6.81	7.33		
CCC(CC)Cc1ccc(N2CCN(S(=O)(=O)C3(C(=O)NO)CCN(CCOC)CC3)CC2)cc1 [Example 188]	7.47	8.40		
CCCCOc1ccc(N2CCN(S(=O)(=O)C3(C(=O)NO)CCN(C(=O)CCC)CC3)CC2)cc1 [Example 290]			8.85	9.46

Reference: patent publication US20050209278A1, “Piperidinyl- and piperazinyl-sulfonylmethyl hydroxamic acids and their use as protease inhibitors” (priority 2002, published 2005)
